Results from patent US10793531B2, “Triazole derivatives and their use as PDE4 activators” (MIRONID LIMITED, priority 2015, dated 2020).

Assays:
full-length human PDE4D5 = target: T1, full-length human PDE4D5 (Homo sapiens, UniProt Q08499); assay: PDE4 radio-assay, PDE4D5 long form activation (Experiment 1); type: biochemical; conditions: n ≥ 2, read-out: PDE4D5 activity (mean % increase in counts over basal activity without added compound); for activation at 50 µM: 50 μM compound; for activation at 1 µM: 1 μM compound; for activation at 3 µM: 3 μM compound; for activation at 10 µM: 10 μM compound; for activation at 30 µM: 30 μM compound
T1 construct: stably expressed the full-length human PDE4D5, PDE4A4 and PDE4B1 long isoforms; made in house; cytosol fraction of the lysate
Description: (§1) One suitable method of detecting whether or not a compound is capable of serving as an activator of a PDE4 long form is using a two-step radio-assay procedure described in Experiment 1. In summary, the method involves incubating a PDE4 long form with a test small molecule activator, together with [^3H]-labelled cAMP to assess alterations in the breakdown of cAMP to the 5′-adenosine monophosphate (5′-AMP) product. A sample of the reaction mixture from such an incubation is subsequently treated with snake venom 5′-nucleotidase to allow conversion of the nucleotide [^3H]-labelled 5′-AMP to the uncharged nucleoside [^3H]-labelled adenosine, which can be separated and quantified to assess PDE4 activity and the effect of the test compound (Thompson, W. J. and Appleman, M. M. Biochemistry 10: 311-316, 1971, with some modifications as described in: Marchmont, R. J. and Houslay, M. D. Biochem J. 187: 381-92, 1980).
(§2) HEK 293 cells were transfected with pDEST™ PDE4 expression vectors using Lipofectamine LTX/Plus reagent (Invitrogen) as outlined by the manufacturer and clonal isolates expanded to obtain cell lines that stably expressed the full-length human PDE4D5, PDE4A4 and PDE4B1 long isoforms and the full length human PDE4B2 short isoform. These were called the HEK-PDE4D5, HEK-PDE4A4, HEK-PDE4B1 and HEK-PDE4B2 cell lines, respectively.
(§3) HEK-PDE4D5 cells were seeded out in 100 mm plates and incubated at 37° C. in an atmosphere of 5% CO2, 95% air. Cell lysates were prepared using KHEM buffer [50 mM KCl, 10 mM EGTA, 50 mM HEPES (pH 7.2), 1.92 mM MgCl2].
(§4) To prepare the cell lysates, the 100 mm plates containing the cells were placed on ice and washed with ice-cold PBS (phosphate buffered saline, pH 7.4). KHEM buffer (500 μl) was added to the cells. Cells were then scraped off the plate and triturated using a needle (BD Microlance™ 0.8, 40 mm). The lysed cells were then centrifuged at 2000 rpm for 10 minutes to remove cell debris and the supernatant (cell lysate containing recombinant PDE4D5) was transferred to a fresh tube and kept on ice.
(§5) The cell lysate containing recombinant PDE4D5 was transferred into a centrifuge tube and placed into an ultracentrifuge (BECKMAN COULTER) and spun at high speed (100,000 g) for 30 minutes at 4° C. The cytosol fraction was then collected and its protein amount determined using a BCA protein assay.
PDE assays were performed using a final concentration of 10 mM Tris/5 mM MgCl2 and 1 μM [3H]-cAMP (Perkin Elmer) plus PDE4D5 cell lysate cytosol fraction, containing over-expressed PDE4D5, with and without test compound. Incubations were performed at 30° C. for 5 minutes. The samples were then placed in a boiling water bath for 2 minutes to denature the PDE enzyme, and returned to ice. Samples were allowed to cool for 1.0 min after which snake venom 5′-nucleotidase (25 μl, 1 mg/ml; Sigma) was added. The tubes were vortexed and incubated in a water bath at 30° C. for 10 minutes, to attain conversion of [3H]-5′-AMP to [3H]-adenosine, and then placed on ice. Dowex ion exchange resin (Sigma) prepared as a 1:1 Dowex:water stock was thoroughly re-suspended and diluted 2:1 with ethanol. The resulting Dowex suspension (0.4 ml) was added to each tube. Tubes were vortexed to mix and then incubated on ice for at least 15 minutes before a final vortex. The Dowex resin was pelleted by centrifugation at 13,000 g at 4° C. for 3 minutes and 150 μl of the supernatant was removed to an Eppendorf tube containing 1 ml of ScintiSafe3 scintillation fluid (Fisher). Tubes were vortexed thoroughly to mix and the recovered [3H]-adenosine was quantified by measuring counts over 1 minute in a scintillation counter.

[1] = target: T2, full length human PDE4B2 short isoform (Homo sapiens, UniProt Q07343); assay: PDE4 radio-assay, PDE4B2 short form (Experiment 1); type: biochemical; conditions: method of Experiment 1; FIG. 4
T2 construct: the full length human PDE4B2 short isoform; made in house; cytosol fraction of the lysate
Description: as §1, §2, §3, §4, §5
PDE assays were performed using a final concentration of 10 mM Tris/5 mM MgCl2 and 1 μM [3H]-cAMP (Perkin Elmer) plus PDE4D5 cell lysate cytosol fraction, containing over-expressed PDE4D5, with and without test compound. Incubations were performed at 30° C. for 5 minutes. […] Tubes were vortexed thoroughly to mix and the recovered [3H]-adenosine was quantified by measuring counts over 1 minute in a scintillation counter.

MDCK cells = assay: Reduction of intracellular cAMP levels in forskolin stimulated MDCK cells (Experiment 2); type: cell-based, canine; conditions: 10 μM compound for 10 min prior to forskolin (10 μM) for 2 min; FIG. 6
Description: HEK 293 and MDCK cells (Public Health England, Cell Culture Collections) were maintained in DMEM supplemented with 10% (v/v) fetal bovine serum (Seralab), 2 mM L-glutamine, 1,000 U penicillin and 1,000 μg streptomycin (Life Technologies); termed complete media. Clonal HEK 293 cell lines were maintained in complete media supplemented with 0.6 mg/mL G418 (Enzo Life Sciences).
HEK 293 or MDCK cells were seeded at 100,000 cells per well, and left to adhere overnight. The cells were then treated with the compound indicated (10 μM) for 10 minutes, prior to stimulation with forskolin (10 μM, Sigma) for 2 minutes. Media was aspirated, and hydrochloric acid (0.1M) was added to lyse the cells. The cAMP assay (Enzo Life Sciences) was performed according to the manufacturers instructions.

T2 sequence (Q07343 1-564 isoform Q07343-2): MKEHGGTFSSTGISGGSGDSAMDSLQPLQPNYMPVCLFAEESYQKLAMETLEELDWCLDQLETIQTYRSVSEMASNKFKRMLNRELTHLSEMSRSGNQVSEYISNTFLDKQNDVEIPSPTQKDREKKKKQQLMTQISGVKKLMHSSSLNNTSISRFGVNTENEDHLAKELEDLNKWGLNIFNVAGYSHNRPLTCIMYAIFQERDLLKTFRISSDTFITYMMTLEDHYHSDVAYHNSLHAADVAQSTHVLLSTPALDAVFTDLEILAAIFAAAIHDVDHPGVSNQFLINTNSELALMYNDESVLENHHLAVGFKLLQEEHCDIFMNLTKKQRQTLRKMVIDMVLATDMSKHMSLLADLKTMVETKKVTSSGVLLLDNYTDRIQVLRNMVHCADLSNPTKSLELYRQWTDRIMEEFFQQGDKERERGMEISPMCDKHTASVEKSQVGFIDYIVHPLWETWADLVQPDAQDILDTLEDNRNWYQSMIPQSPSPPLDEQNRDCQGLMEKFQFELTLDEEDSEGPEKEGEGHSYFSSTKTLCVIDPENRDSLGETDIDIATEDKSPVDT
T1 sequence (Q08499 1-745 isoform Q08499-6): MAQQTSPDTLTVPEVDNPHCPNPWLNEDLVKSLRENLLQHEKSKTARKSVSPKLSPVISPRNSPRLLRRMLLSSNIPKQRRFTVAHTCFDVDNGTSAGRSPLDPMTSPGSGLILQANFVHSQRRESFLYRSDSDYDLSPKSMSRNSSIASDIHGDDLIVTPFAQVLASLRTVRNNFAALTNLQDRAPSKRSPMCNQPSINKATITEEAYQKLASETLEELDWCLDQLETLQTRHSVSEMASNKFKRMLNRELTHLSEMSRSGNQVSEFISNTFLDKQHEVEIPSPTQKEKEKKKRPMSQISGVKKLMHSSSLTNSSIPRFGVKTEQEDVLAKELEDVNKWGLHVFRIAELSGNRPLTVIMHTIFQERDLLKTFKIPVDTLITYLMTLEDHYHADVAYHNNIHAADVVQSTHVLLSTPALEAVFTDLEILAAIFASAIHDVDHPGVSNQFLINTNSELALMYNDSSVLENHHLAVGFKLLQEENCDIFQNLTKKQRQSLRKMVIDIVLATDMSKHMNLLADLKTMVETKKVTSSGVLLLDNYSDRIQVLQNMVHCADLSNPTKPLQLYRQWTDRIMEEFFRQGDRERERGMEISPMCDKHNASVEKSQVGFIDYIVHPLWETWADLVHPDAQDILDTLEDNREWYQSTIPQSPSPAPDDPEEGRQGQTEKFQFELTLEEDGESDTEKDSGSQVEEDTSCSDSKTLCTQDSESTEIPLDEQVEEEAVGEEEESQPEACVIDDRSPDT

Structure (SMILES) | activation at 50 µM (full-length human PDE4D5) [%] | activation at 1 µM (full-length human PDE4D5) [%] | activation at 3 µM (full-length human PDE4D5) [%] | activation at 10 µM (full-length human PDE4D5) [%] | activation at 30 µM (full-length human PDE4D5) [%] | activation of PDE4B2, a short form of PDE4 (in words) [1] | intracellular cAMP levels in MDCK cells (in words) (MDCK cells)
CCc1nc(-c2ccc(Cl)c(F)c2)nn1CC(=O)NCc1ccccc1F [Example J, N-(2-Fluorobenzyl)-2-[3-(4-chloro-3-fluorophenyl)-5-ethyl-1H-1,2,4-triazol-1-yl]acetamide] | 82.2 | – | – | – | – | – | –
CCc1nc(-c2ccc(Cl)c(F)c2)nn1CC(=O)NCc1ccc(OC)c(OC)c1 [Example L, N-(3,4-Dimethoxybenzyl)-2-[3-(4-chloro-3-fluorophenyl)-5-ethyl-1H-1,2,4-triazol-1-yl]acetamide] | 251 | 26 | 42.4 | 79.8 | 214 | lack of activation | –
CCc1nc(-c2ccc(Cl)c(F)c2)nn1CC(=O)NCc1cccc(Cl)c1 [Example E, N-(3-Chlorobenzyl)-2-[3-(4-chloro-3-fluorophenyl)-5-ethyl-1H-1,2,4-triazol-1-yl]acetamide] | 71.1 | – | – | – | – | – | –
CCc1nc(-c2ccc(Cl)c(F)c2)nn1CC(=O)NCc1cccc(OC)c1 [Example H, N-(3-Methoxybenzyl)-2-[3-(4-chloro-3-fluorophenyl)-5-ethyl-1H-1,2,4-triazol-1-yl]acetamide] | 136 | – | – | – | – | – | –
COCc1nc(-c2ccc(OC(F)(F)F)cc2)nn1CC(=O)NCc1cccc(F)c1 [Example D, N-(3-Fluorobenzyl)-2-{3-[4-(trifluoromethoxy)phenyl]-5-methoxymethyl-1H-1,2,4-triazol-1-yl}acetamide] | 196 | 52.6 | 30.6 | 51.6 | 126 | lack of activation | reduction in intracellular cAMP levels
CCc1nc(-c2ccc(Cl)c(F)c2)nn1CC(=O)NCc1cccc(C#N)c1 [Example F, N-(3-Cyanobenzyl)-2-[3-(4-chloro-3-fluorophenyl)-5-ethyl-1H-1,2,4-triazol-1-yl]acetamide] | 107 | – | – | – | – | – | –
CCc1nc(-c2ccc(Cl)c(F)c2)nn1CC(=O)NCc1cccc(OC(F)(F)F)c1 [Example I, N-[3-(Trifluoromethoxy)benzyl]-2-[3-(4-chloro-3-fluorophenyl)-5-ethyl-1H-1,2,4-triazol-1-yl]acetamide] | 92.1 | – | – | – | – | – | –
CCc1nc(-c2ccc(Cl)c(F)c2)nn1CC(=O)NCc1ccc(F)cc1 [Example K, N-(4-Fluorobenzyl)-2-[3-(4-chloro-3-fluorophenyl)-5-ethyl-1H-1,2,4-triazol-1-yl]acetamide] | 80.5 | – | – | – | – | – | –
CCc1nc(-c2ccc(Cl)c(F)c2)nn1CC(=O)NCc1cccc(C(F)(F)F)c1 [Example G, N-[3-(Trifluoromethyl)benzyl]-2-[3-(4-chloro-3-fluorophenyl)-5-ethyl-1H-1,2,4-triazol-1-yl]acetamide] | 171 | – | – | – | – | – | –
COCc1nc(-c2ccc(Cl)cc2)nn1CC(=O)NCc1ccccc1 [Example B, N-Benzyl-2-[3-(4-chlorophenyl)-5-methoxymethyl-1H-1,2,4-triazol-1-yl]acetamide] | 114 | 7.2 | 0.4 | 21.9 | 64.6 | lack of activation | –
Cc1nc(-c2ccc(Cl)cc2)nn1CC(=O)NCc1ccccc1 [Example C, N-Benzyl-2-[3-(4-chlorophenyl)-5-methyl-1H-1,2,4-triazol-1-yl]acetamide] | 119 | – | – | – | – | – | reduction in intracellular cAMP levels
